Experimental data as given in patent US11191809B2, “Composition in powder form comprising iron-milk protein complexes and probiotic bacteria” (NESTEC S.A., priority 2016, dated 2021).

Tested on: probiotic bacteria
Test: Viability of probiotic bacteria with iron sources (general finding of the inventors)
Type: cell-based
Conditions: general statement; reconstitution of powder with a liquid

## O.O.O.O.O.O.O.O=S(=O)([O-])[O-].[Fe+2] [ferrous sulphate heptahydrate]
  loss of viability of probiotic bacteria: significant loss of viability
